Source: patent US8017611B2, “Pyridine and pyrazine derivatives -083” (AstraZeneca AB, priority 2007, dated 2011)

Target: T1, recombinant Axl tyrosine kinase (Homo sapiens, UniProt P30530)
T1 construct: encompassing amino acids 473 to 894 of Axl; GST (N); made in house; host or cells: SF126 insect cells
T1 sequence (P30530 473-894): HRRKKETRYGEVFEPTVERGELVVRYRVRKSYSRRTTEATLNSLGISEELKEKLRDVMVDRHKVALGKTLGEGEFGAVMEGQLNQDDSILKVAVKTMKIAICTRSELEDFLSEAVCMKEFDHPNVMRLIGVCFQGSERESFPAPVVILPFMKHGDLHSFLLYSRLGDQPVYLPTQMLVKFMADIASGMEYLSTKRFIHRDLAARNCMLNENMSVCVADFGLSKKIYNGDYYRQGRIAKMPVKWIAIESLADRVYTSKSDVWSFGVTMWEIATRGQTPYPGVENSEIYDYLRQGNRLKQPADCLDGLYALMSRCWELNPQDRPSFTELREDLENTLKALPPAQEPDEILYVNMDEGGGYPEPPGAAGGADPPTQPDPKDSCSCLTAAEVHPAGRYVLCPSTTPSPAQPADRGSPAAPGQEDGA
Assay: In vitro Axl kinase assay (AlphaScreen), Test (a)
Format: biochemical
Conditions: test compound at 1 μM, first value quoted; for inhibition at 1 µM: read-out: % Axl tyrosine kinase inhibition at 1 μM concentration

| SMILES | inhibition at 1 µM [%] | % Axl tyrosine kinase inhibition at 1 μM concentration [%] |
| --- | --- | --- |
| Nc1ncc(-c2cnn(C3CCNCC3)c2)cc1-c1nc2ccc(F)c(F)c2o1 [Example 38.1] |  | 99.5 |
| COc1cccc2nc(-c3cc(-c4cnn(C5CCNCC5)c4)cnc3N)oc12 [Example 38.5] |  | 100.0 |
| COc1cccc2oc(-c3cc(-c4cnn(C5CCNCC5)c4)cnc3N)nc12 [Example 38A.1] |  | 97.8 |
| Nc1ncc(-c2cnn(C3CCNCC3)c2)cc1-c1nc2c(F)cccc2o1 [Example 38A.2] |  | 100.0 |
| N#Cc1cccc2oc(-c3cc(-c4cnn(C5CCNCC5)c4)cnc3N)nc12 [Example 38A.3] |  | 99.9 |
| CN1CCCC(n2cc(-c3cnc(N)c(-c4nc5ccccc5o4)c3)cn2)C1 (stereo not drawn) [Example 41.2] |  | 99.3 |
| CN1CCC(n2cc(-c3cnc(N)c(-c4nc5ncccc5o4)c3)cn2)CC1 [Example 41.4] |  | 99.8 |
| CN1CCC(Cn2cc(-c3cnc(N)c(-c4nc5ccccc5o4)c3)cn2)CC1 [Example 41.6] |  | 99.9 |
| CN1CC(n2cc(-c3cnc(N)c(-c4nc5ccccc5o4)c3)cn2)C1 [Example 41.8] |  | 99.7 |
| CN1CCC(n2cc(-c3cnc(N)c(-c4nc5ccccc5o4)c3)cn2)C1 (stereo not drawn) [Example 41.9] |  | 100.0 |
| CN1CC(Cn2cc(-c3cnc(N)c(-c4nc5ccccc5o4)c3)cn2)C1 [Example 41.11] |  | 74.7 |
| Cc1nn(C2CCN(C)CC2)cc1-c1cnc(N)c(-c2nc3c(F)cccc3o2)c1 [Example 41.23] |  | 100.0 |
| CN1CCC(n2cc(-c3cnc(N)c(-c4nc5ccccc5o4)c3)c(C#N)n2)CC1 [Example 41.28] |  | 100.0 |
| CC(O)c1nn(C2CCN(C)CC2)cc1-c1cnc(N)c(-c2nc3ccccc3o2)c1 (stereo not drawn) [Example 41.29] |  | 99.9 |
| CN1CCC(n2cc(-c3cnc(N)c(-c4nc5ccccc5o4)c3)c(N(C)C)n2)CC1 [Example 41.31] |  | 99.9 |
| CN1CCC(n2cc(-c3cnc(N)c(-c4nc5c(F)cccc5o4)c3)c(CO)n2)CC1 [Example 41.32] |  | 100.0 |
| CNC(=O)c1nn(C2CCN(C)CC2)cc1-c1cnc(N)c(-c2nc3ccccc3o2)c1 [Example 41.33] |  | 99.6 |
| COCc1nn(C2CCN(C)CC2)cc1-c1cnc(N)c(-c2nc3c(F)cccc3o2)c1 [Example 41.34] |  | 100.0 |
| CN1CCC(n2cc(-c3cnc(N)c(-c4nc5c(F)cccc5o4)c3)c(C(=O)N(C)C)n2)CC1 [Example 41.37] |  | 99.5 |
| Cc1nn(C2CCN(C)CC2)cc1-c1cnc(N)c(-c2nc3c(C#N)cccc3o2)c1 [Example 41.40] |  | 99.2 |

Second part, the molecule after the results:

| inhibition at 1 µM [%] | % Axl tyrosine kinase inhibition at 1 μM concentration [%] | SMILES |
| --- | --- | --- |
| 100 |  | COc1ccc2oc(-c3cc(-c4cnn(C5CCN(C)CC5)c4)cnc3N)nc2c1 [Example 35A, 3-(5-methoxy-1,3-benzoxazol-2-yl)-5-[1-(1-methyl-4-piperidyl)pyrazol-4-yl]pyridin-2-amine] |
| 100 |  | Cc1cccc2nc(-c3cc(-c4cnn(C5CCN(C)CC5)c4)cnc3N)oc12 [Example 36, 3-(7-methyl-1,3-benzoxazol-2-yl)-5-[1-(1-methyl-4-piperidyl)pyrazol-4-yl]pyridin-2-amine] |
| 98.4 |  | Nc1ncc(-c2cnn(C3CCNCC3)c2)cc1-c1nc2ncc(F)cc2o1 [Example 37, 3-(6-fluorooxazolo[4,5-b]pyridin-2-yl)-5-[1-(4-piperidyl)pyrazol-4-yl]pyridin-2-amine] |
|  | 100.0 | Nc1ncc(-c2cnn(C3CCNCC3)c2)cc1-c1nc2cccc(F)c2o1 [Example 38.3] |
| 99.9 |  | CNC(=O)[C@@H]1C[C@@H](n2cc(-c3cnc(N)c(-c4nc5ccccc5o4)c3)cn2)CN1C [Example 39, (2S,4R)-4-[4-[6-amino-5-(1,3-benzoxazol-2-yl)-3-pyridyl]pyrazol-1-yl]-N,1-dimethyl-pyrrolidine-2-carboxamide] |
| 100 |  | Nc1ncc(-c2cn(C3CCNCC3)nn2)cc1-c1nc2ccccc2o1 [Example 40, 3-(1,3-benzoxazol-2-yl)-5-[1-(4-piperidyl)triazol-4-yl]pyridin-2-amine] |
|  | 99.8 | CN1CCC(n2cc(-c3cnc(N)c(-c4nc5cnccc5o4)c3)cn2)CC1 [Example 41.1] |
|  | 99.7 | CN1CCC(n2cc(-c3cnc(N)c(-c4nc5cccc(F)c5o4)c3)cn2)CC1 [Example 41.10] |
|  | 100.0 | CCOc1nn(C2CCN(C)CC2)cc1-c1cnc(N)c(-c2nc3ccccc3o2)c1 [Example 41.13] |
|  | 100.0 | COc1nn(C2CCN(C)CC2)cc1-c1cnc(N)c(-c2nc3ccccc3o2)c1 [Example 41.14] |
|  | 98.4 | CN1CCC(Cn2cc(-c3cnc(N)c(-c4nc5ccccc5o4)c3)cn2)C1 (stereo not drawn) [Example 41.15] |
|  | 98.3 | CN1CCC(n2cc(-c3cnc(N)c(-c4nc5ccc(F)c(F)c5o4)c3)cn2)CC1 [Example 41.16] |
|  | 84.8 | Cc1nn(C2CCN(C)CC2)c(C)c1-c1cnc(N)c(-c2nc3ccccc3o2)c1 [Example 41.17] |
|  | 100.0 | Cc1c(-c2cnc(N)c(-c3nc4ccccc4o3)c2)cnn1C1CCN(C)CC1 [Example 41.18] |
|  | 99.7 | Cc1nn(C2CCN(C)CC2)cc1-c1cnc(N)c(-c2nc3cccnc3o2)c1 [Example 41.20] |
|  | 100.0 | Cc1nn(C2CCN(C)CC2)cc1-c1cnc(N)c(-c2nc3ccccc3o2)n1 [Example 41.21] |
|  | 100.0 | Cc1nn(C2CCN(C)CC2)cc1-c1cnc(N)c(-c2nc3ncccc3o2)c1 [Example 41.22] |
|  | 92.1 | COc1cccc2oc(-c3cc(-c4cnn(C5CCN(C)CC5)c4)cnc3N)nc12 [Example 41.24] |
|  | 99.8 | CN1CCC(n2cc(-c3cnc(N)c(-c4nc5c(C#N)cccc5o4)c3)cn2)CC1 [Example 41.25] |
|  | 100.0 | COc1cccc2nc(-c3cc(-c4cnn(C5CCN(C)CC5)c4)cnc3N)oc12 [Example 41.27] |
|  | 99.5 | CN1CCC(n2cc(-c3cnc(N)c(-c4nc5ccccc5o4)c3)c(C(=O)N(C)C)n2)CC1 [Example 41.30] |
|  | 99.8 | CN1CCC(n2cc(-c3cnc(N)c(-c4nc5ccccc5o4)c3)c(C(N)=O)n2)CC1 [Example 41.35] |
|  | 100.0 | CNC(=O)c1cccc2nc(-c3cc(-c4cnn(C5CCN(C)CC5)c4)cnc3N)oc12 [Example 41.36] |
|  | 100.0 | COCc1nn(C2CCN(C)CC2)cc1-c1cnc(N)c(-c2nc3c(C#N)cccc3o2)c1 [Example 41.39] |
|  | 99.7 | CC(O)c1nn(C2CCN(C)CC2)cc1-c1cnc(N)c(-c2nc3c(C#N)cccc3o2)c1 (stereo not drawn) [Example 41.41] |
